Entries after “also recorded” stand apart in the source; their conditions may differ.
Key:
[1] = tested on: HT1080 cells, mouse embryonic fibroblasts (MEFs), Du145 and PC3; experiment: Cell viability (AquaBluer): ferroptosis inducers (FINs) with or without CPBA; format: cell-based, human; conditions: 16 h
Protocol: Cells were seeded onto 96-well plates (5,000 cells per well), and treated with serial dilutions of ferroptosis-inducing compounds (erastin, BSO, RSL3, FIN56) or cytotoxic drugs (staurosporine, nocodazole, tunicamycin, paclitaxel, etoposide, menadione, rotenone, FCCP, carboplatin) in the absence or presence of CPBA or iFSP1 (100 μM or 10 μM, respectively; unless stated otherwise) or the DMSO solvent control. Ferroptotic cell death was evaluated by incubating in the absence or presence of liproxstatin-1 (100 nM), ferrostatin-1 (200 nM), or deferoxamine (100 μM). Cell viability was assessed after 16 h using AquaBluer as an indicator of viable cells according to the manufacturer's recommendations (MultiTarget Pharmaceuticals, LLC). Fluorescence (excitation, 540 nm; emission, 590 nm) was analyzed on a Clariostar microplater reader.
HT1080 cells, mouse embryonic fibroblasts (MEFs, non-transformed, non-immortalized) and human prostate carcinoma cell lines Du145 and PC3 were incubated with serial dilutions of ferroptosis inducers (FINs) erastin, BSO, RSL3 or FIN56 in the absence or presence of CPBA and/or the ferroptosis inhibitor liproxstatin-1 (HT1080, Du145, PC3: 200 μM CPBA, MEF: 100 μM CPBA; lip-1:100 nM), and cell viability was analyzed after 16 h using Aquabluer. […]
AUC values (AUC FIN+CPBA/AUC FIN+ctrl) were calculated as described above.

HT1080 cells = experiment: Mass spectrometry lipidomics of CPBA-treated cells; format: cell-based, human; conditions: 200 μM CPBA, 16 h
Protocol: Mass spectrometry-based lipid analysis was performed by Lipotype GmbH (Dresden, Germany) as described (Sampaio et al. 2011). Lipids were extracted using a two-step chloroform/methanol procedure (Ejsing et al. 2009). […]
Samples were analyzed by direct infusion on a QExactive mass spectrometer (Thermo Fisher Scientific) equipped with a TriVersa NanoMate ion source (Advion Biosciences). Samples were analyzed in both positive and negative ion modes with a resolution of Rm/z=200=280000 for MS and Rm/z=200=17500 for MSMS experiments, in a single acquisition. […]
Data were analyzed with in-house developed lipid identification software based on LipidXplorer (Herzog et al. 2011; Herzog et al. 2012). […]
Next, we analyzed the lipidomic signature of HT1080 cells treated with CPBA (200 μM, 16 h) using the lipidomics methods described above. […]

## O=C(Nc1ccccc1C(=O)O)c1ccc(Oc2ccc(C(=O)Nc3ccccc3C(=O)O)cc2)cc1 [CPBA, 2-[[4-[4-[(2-carboxyphenyl)carbamoyl]phenoxy]benzoyl]amino]-benzoic acid]
[1]; FINs erastin, BSO, RSL3 or FIN56, 200 μM CPBA (MEF: 100 μM)
  effect on FIN-induced ferroptosis / cell viability: increases the negative effect of FINs on cell viability; also recorded: strongly increases FIN-induced ferroptosis in all cell lines
[1]; HT1080 and PC3 cells, serial dilutions of FINs±CPBA
  concentration dependence of ferroptosis-sensitization: ferroptosis-sensitization by CPBA is concentration-dependent
HT1080 cells
  PUFA ether lipids (PE-O, PC-O): downregulate polyunsaturated fatty acid (PUFA) ether lipids
  PUFA-triacylglycerides: upregulate PUFA-triacylglycerides (PUFA-TAGS)

Source: patent US20250064762A1, “A SUBSTITUTED AROMATIC DICARBONIC ACID AMIDE AS AN INHIBITOR OF THE FERROPTOSIS SUPPRESSOR PROTEIN-1 (FSP1)” (JULIUS-MAXIMILIANS-UNIVERSITÄT WÜRZBURG, priority 2021, published 2025)
